# Results published in patent publication US10562842B2, “Use of polyaminoisoprenyl derivatives in antibiotic or antiseptic treatment” (UNIVERSITE D'AIX-MARSEILLE, priority 2011, dated 2020).
# Tests used:
# [1] = test system: Salmonella Thyphimurium MDR BN10055; test: MIC of antibiotics ± test compound (MIC ratio), micro-broth dilution; assay type: cell-based, Salmonella enterica serovar Typhimurium; details: compound at MIC/4; for MIC ratio (*) on BN10055 Chl: chloramphenicol; for MIC ratio Chloramphenicol S. enterica BN10055 / MIC ratio Doxycycline S. enterica BN10055 / MIC ratio Nalidixic acid S. enterica BN10055: Example 4; for MIC ratio (*) on BN10055 Dox: doxycycline; for MIC ratio (*) on BN10055 Nal: nalidixic acid
# Experimental: (§1) The Enterobacter aerogenes Ea289 strain is a Kans derivative of the MDR clinical isolate Ea27, the acrB mutant, EaEP294, was constructed from Ea289. Multidrug-resistant Salmonella enterica serovar Typhimurium DT104 strains (BN10055) was isolated from cattle in France, the isogenic acrB derivative mutant, BN10055ΔacrB, was constructed from BN10055. Strains were maintained at −80° C. in 25% (v/v) glycerol for cryoprotection. Bacteria were routinely grown in Mueller-Hinton (MH) broth at 37° C.
# (§2) Susceptibilities to antibiotics and compounds were determined in microplates by broth dilution method, as previously described. Minimal Inhibitory Concentrations (MICs) were determined with an inoculum of 10^6 CFU in 200 μL of MH broth containing two-fold serial dilutions of each drug. […] All MIC determinations were repeated at least three times in independent experiments.
# (§3) […] All MIC determinations were repeated at least three times in independent experiments. The MIC ratio corresponds to the ratio of the MIC of an antibiotic alone to the MIC of the same antibiotic in the presence of the tested compound (at MIC/4).
# (§4) For reminder, the MIC ratio corresponds to the ratio of the MIC of the assessed antibiotic alone to the MIC of the same antibiotic in the presence of the tested compound (at MIC/4).
# BN10055ΔacrB [2] = test: as above; assay type: cell-based, Salmonella enterica serovar Typhimurium; details: compound at MIC/4; for MIC ratio Chloramphenicol S. enterica BN1005ΔacrB / MIC ratio Doxycycline S. enterica BN1005ΔacrB / MIC ratio Nalidixic acid S. enterica BN1005ΔacrB: Example 4
# Experimental: as §1, §2, §3, §4
# PAO1 = test: MIC by broth dilution (intrinsic MIC); assay type: cell-based; details: Pseudomonas aeruginosa
# Experimental: as §2
# ATCC 13048 [3] = test: MIC by broth dilution (intrinsic MIC); assay type: cell-based; details: Klebsiella aerogenes, ATCC13048; Enterobacter ATCC 13048
# Experimental: as §2
# PA124 = test: MIC by broth dilution (intrinsic MIC); assay type: cell-based; details: Pseudomonas aeruginosa
# Experimental: as §2
# ATCC 19606 [4] = test: MIC by broth dilution (intrinsic MIC); assay type: cell-based; details: Acinetobacter baumannii, ATCC19606; Acinetobacter ATCC 19606
# Experimental: as §2
# AB1 [5] = test: MIC by broth dilution (intrinsic MIC); assay type: cell-based; details: Acinetobacter baumannii
# Experimental: as §2
# AG100 [6] = test: MIC by broth dilution (intrinsic MIC); assay type: cell-based; details: Escherichia coli AG100
# Experimental: as §2
# Ea27 [7] = test: MIC by broth dilution (intrinsic MIC); assay type: cell-based; details: Klebsiella aerogenes; Enterobacter Ea27
# Experimental: as §2
# ATCC 19606 [8] = test: MIC of antibiotics ± test compound (MIC ratio), micro-broth dilution; assay type: cell-based, Acinetobacter baumannii; details: compound at MIC/4
# Experimental: as §2
# (§5) The MICs of chloramphenicol±test compounds (MIC/4) were determined by the micro-broth dilution method (9). All MIC determinations were repeated at least three times in independent experiments. The MIC ratio corresponds to the ratio of the MIC of an antibiotic alone to the MIC of the same antibiotic in the presence of the tested compound (at MIC/4).
# as §4
# AB1 [9] = test: as above; assay type: cell-based, Acinetobacter baumannii; details: compound at MIC/4
# Experimental: as §2, §5, §4
# [10] = Tolerance in mice, intraperitoneal route; assay type: in vivo; details: day 2, Compound 5 8.8 mg/kg, 8 1.46 mg/kg, 11 0.45 mg/kg, 14 0.35 mg/kg, 12 6.3 mg/kg
# Experimental: Mice were administered with increasing doses of test compounds by intraperitoneal route.
# The mice were sacrificed on day 2 after the injection of the test compound and autopsied. No morphological anomaly was observed. Liver, lung, kidney and intestine of each mouse were fixed and analysed.
# BN10055ΔacrB [11] = test: MIC by broth dilution (intrinsic MIC); assay type: cell-based, Salmonella enterica; details: Salmonella BN10055ΔacrB
# Experimental: as §2
# BN10055 = test: MIC by broth dilution (intrinsic MIC); assay type: cell-based, Salmonella enterica; details: Salmonella enterica; Salmonella BN10055
# Experimental: as §2
# [12] = test system: strain IV2571223 - Escherichia coli pig (sensible); test: MIC of antibiotics in the presence and absence of test compound, veterinary strains; assay type: cell-based; set-up: MIC for strain IV2571223, Doxycycline in the presence of test compound: unit not given beside the values; details: compound at the Concentration (μM) (2-50)
# Experimental: (§6) For each strain and each antibiotic, the MICs were determined in the presence and in the absence of one test compound.
# AG100 [13] = test: MIC of antibiotics ± test compound (MIC ratio), micro-broth dilution; assay type: cell-based, Escherichia coli; details: compound at MIC/4; Example 4
# Experimental: as §2, §5, §4
# [14] = test system: Enterobacter aerogenes MDR Ea289; test: as above; assay type: cell-based; details: compound at MIC/4, Set 2; for MIC ratio (*) on Ea289 Dox: doxycycline; for MIC ratio (*) on Ea289 Nal: nalidixic acid
# CM64 = test: as above; assay type: cell-based, Enterobacter aerogenes; details: compound at MIC/4; Example 4
# Experimental: as §2, §5, §4
# ATCC 13048 [15] = test: as above; assay type: cell-based, Enterobacter aerogenes; details: compound at MIC/4; Example 4
# Experimental: as §2, §5, §4
# Ea27 [16] = test: as above; assay type: cell-based, Enterobacter aerogenes; details: compound at MIC/4; Example 4
# Experimental: as §2, §5, §4
# Ea294 = test: MIC by broth dilution (intrinsic MIC); assay type: cell-based, Enterobacter aerogenes; details: Klebsiella aerogenes, read-out: intrinsic MIC, Ea294
# Experimental: as §2
# [17] = test system: strain IV2570533 - Escherichia coli cattle (resistant); test: MIC of antibiotics in the presence and absence of test compound, veterinary strains; assay type: cell-based; details: compound at the Concentration (μM) (0.896-12.6)
# Experimental: as §6
# [18] = test system: strain IV2570060 - Escherichia coli cattle (sensible); test: as above; assay type: cell-based; details: compound at the Concentration (μM) (4-50)
# Experimental: as §6
structure (smiles),measurement,setting,value
"CC(C)=CCCC(C)=CCNCCCN(CCCN)CCCN (racemic) [Compound 11, {3-[Bis-(3-amino-propyl)-amino]-propyl}-(3,7-dimethyl-octa-2,6-dienyl)-amine]",MIC ratio (*) on BN10055 Chl,[1]; Set 1,16
same,MIC ratio (*) on BN10055 Chl,[1]; Set 2,16
same,MIC ratio Chloramphenicol S. enterica BN10055,[1],16
same,MIC ratio Doxycycline S. enterica BN10055,[1],16
same,MIC ratio Nalidixic acid S. enterica BN10055,[1],128
same,MIC ratio (*) on BN10055 Dox,[1]; Set 2,16
same,MIC ratio(*) on BN10055 Ery,"[1]; erythromycin, Set 1",8
same,MIC ratio (*) on BN10055 Nal,[1]; Set 1,128
same,MIC ratio (*) on BN10055 Nal,[1]; Set 2,128
same,MIC ratio(*) on BN10055ΔacrB Chl,"BN10055ΔacrB [2]; chloramphenicol, Set 1",2
same,MIC ratio Chloramphenicol S. enterica BN1005ΔacrB,BN10055ΔacrB [2],2
same,MIC ratio Doxycycline S. enterica BN1005ΔacrB,BN10055ΔacrB [2],2
same,MIC ratio Nalidixic acid S. enterica BN1005ΔacrB,BN10055ΔacrB [2],2
same,MIC ratio(*) on BN10055ΔacrB Ery,"BN10055ΔacrB [2]; erythromycin, Set 1",8
same,MIC ratio(*) on BN10055ΔacrB Nal,"BN10055ΔacrB [2]; nalidixic acid, Set 1",2
same,MIC,PAO1,62 µM
same,MIC,ATCC 13048 [3],31 µM
same,MIC,PA124,62 µM
same,MIC,ATCC 19606 [4],62 µM
same,MIC,AB1 [5],31 µM
same,MIC,AG100 [6],31 µM
same,MIC,Ea27 [7],31 µM
same,MIC ratio Cefepime Acinetobacter baumannii ATCC19606,ATCC 19606 [8],4-8
same,MIC ratio Chloramphénicol Acinetobacter baumannii ATCC19606,ATCC 19606 [8],8
same,MIC ratio Doxycycline Acinetobacter baumannii ATCC19606,ATCC 19606 [8],1
same,MIC ratio Tetracycline Acinetobacter baumannii ATCC19606,ATCC 19606 [8],8
same,MIC ratio Cefepime Acinetobacter baumannii AB1,AB1 [9],1
same,MIC ratio Chloramphénicol Acinetobacter baumannii AB1,AB1 [9],16
same,MIC ratio Doxycycline Acinetobacter baumannii AB1,AB1 [9],2
same,MIC ratio Tetracycline Acinetobacter baumannii AB1,AB1 [9],2
same,"tissue anomaly (liver, lung, kidney, intestine)",[10],no significant tissue anomaly
same,"intrinsic MIC, BN10055ΔacrB",BN10055ΔacrB [11],15 µM
same,MIC,BN10055,31 µM
same,"MIC for strain IV2571223, Doxycycline in the presence of test compound",[12],0.03125
same,"MIC for strain IV2571223, Tylosine in the presence of test compound",[12],16
same,MIC ratio Chloramphenicol E. Coli AG100,AG100 [13],16
same,MIC ratio Doxycycline E. Coli AG100,AG100 [13],>32
same,MIC ratio Oxacillin E. Coli AG100,AG100 [13],16
same,MIC ratio (*) on Ea289 Dox,[14],32
same,MIC ratio (*) on Ea289 Nal,[14],8
same,MIC ratio Chloramphenicol E. aerogenes CM64,CM64,16
same,MIC ratio Oxacillin E. aerogenes CM64,CM64,>8
same,MIC ratio Chloramphenicol E. aerogenes ATCC13048,ATCC 13048 [15],>32
same,MIC ratio Doxycycline E. aerogenes ATCC13048,ATCC 13048 [15],64
same,MIC ratio Oxacillin E. aerogenes ATCC13048,ATCC 13048 [15],>8
same,MIC ratio Chloramphenicol E. aerogenes Ea27,Ea27 [16],>4
same,MIC ratio Doxycycline E. aerogenes Ea27,Ea27 [16],32
same,MIC ratio Oxacillin E. aerogenes Ea27,Ea27 [16],1
same,MIC,Ea294,15 µM
same,"MIC for strain IV2570533, Doxycycline in the presence of test compound",[17],1
same,"MIC for strain IV2570533, Tylosine in the presence of test compound",[17],4
same,"MIC for strain IV2570060, Doxycycline in the presence of test compound",[18],0.0625
same,"MIC for strain IV2570060, Tylosine in the presence of test compound",[18],4
"CC(C)=CCC/C(C)=C/CC/C(C)=C/CNCCCN(C)CCCN [Compound 14, {3-[(3-Amino-propyl)-methyl-amino]-propyl}-((2E,6E)-3,7,11-trimethyl-dodeca-2,6,10-trienyl)-amine]",MIC ratio (*) on BN10055 Chl,[1]; Set 2,16
same,MIC ratio Chloramphenicol S. enterica BN10055,[1],16
same,MIC ratio Doxycycline S. enterica BN10055,[1],64
same,MIC ratio Nalidixic acid S. enterica BN10055,[1],128
same,MIC ratio (*) on BN10055 Dox,[1]; Set 2,64
same,MIC ratio (*) on BN10055 Nal,[1]; Set 2,128
same,MIC ratio Chloramphenicol S. enterica BN1005ΔacrB,BN10055ΔacrB [2],2
same,MIC ratio Doxycycline S. enterica BN1005ΔacrB,BN10055ΔacrB [2],2
same,MIC ratio Nalidixic acid S. enterica BN1005ΔacrB,BN10055ΔacrB [2],4
same,MIC,PAO1,250 µM
same,MIC,ATCC 13048 [3],31 µM
same,MIC,PA124,250 µM
same,MIC,ATCC 19606 [4],62 µM
same,MIC,AB1 [5],62 µM
same,MIC,AG100 [6],62 µM
same,MIC,Ea27 [7],31 µM
same,MIC ratio Cefepime Acinetobacter baumannii ATCC19606,ATCC 19606 [8],4-8
same,MIC ratio Chloramphénicol Acinetobacter baumannii ATCC19606,ATCC 19606 [8],8
same,MIC ratio Doxycycline Acinetobacter baumannii ATCC19606,ATCC 19606 [8],1
same,MIC ratio Tetracycline Acinetobacter baumannii ATCC19606,ATCC 19606 [8],4
same,MIC ratio Cefepime Acinetobacter baumannii AB1,AB1 [9],1
same,MIC ratio Chloramphénicol Acinetobacter baumannii AB1,AB1 [9],16
same,MIC ratio Doxycycline Acinetobacter baumannii AB1,AB1 [9],2
same,MIC ratio Tetracycline Acinetobacter baumannii AB1,AB1 [9],4
same,"tissue anomaly (liver, lung, kidney, intestine)",[10],no significant tissue anomaly
same,"intrinsic MIC, BN10055ΔacrB",BN10055ΔacrB [11],15 µM
same,MIC,BN10055,31 µM
same,"MIC for strain IV2571223, Doxycycline in the presence of test compound",[12],0.03125
same,"MIC for strain IV2571223, Tylosine in the presence of test compound",[12],2
same,MIC ratio Chloramphenicol E. Coli AG100,AG100 [13],16
same,MIC ratio Doxycycline E. Coli AG100,AG100 [13],>32
same,MIC ratio Oxacillin E. Coli AG100,AG100 [13],16
same,MIC ratio (*) on Ea289 Dox,[14],64
same,MIC ratio (*) on Ea289 Nal,[14],32
same,MIC ratio Chloramphenicol E. aerogenes CM64,CM64,16
same,MIC ratio Oxacillin E. aerogenes CM64,CM64,>8
same,MIC ratio Chloramphenicol E. aerogenes ATCC13048,ATCC 13048 [15],>32
same,MIC ratio Doxycycline E. aerogenes ATCC13048,ATCC 13048 [15],64
same,MIC ratio Oxacillin E. aerogenes ATCC13048,ATCC 13048 [15],>8
same,MIC ratio Chloramphenicol E. aerogenes Ea27,Ea27 [16],>4
same,MIC ratio Doxycycline E. aerogenes Ea27,Ea27 [16],32
same,MIC ratio Oxacillin E. aerogenes Ea27,Ea27 [16],1
same,MIC,Ea294,15 µM
same,"MIC for strain IV2570533, Doxycycline in the presence of test compound",[17],1
same,"MIC for strain IV2570533, Tylosine in the presence of test compound",[17],8
same,"MIC for strain IV2570060, Doxycycline in the presence of test compound",[18],0.0625
same,"MIC for strain IV2570060, Tylosine in the presence of test compound",[18],8
